Experimental data from US20090022664A1, “Radiolabelling via fluorination of aziridines” (priority 2007, published 2009).

Key:
[1] = Hydrolytic stability of the β-fluoro amines; format: physicochemical; conditions: under neutral and basic conditions (FIG. 2)
Description: The β-fluoro amino acid derivative 11ab-18F is quite stable under neutral and basic conditions (FIG. 2).

[2] = Plasma stability of the β-fluoro amines; format: in vitro ADME; conditions: in solution with Human Plasma; aliquots incubated for different time periods
Protocol: 675 μl EtOH were added to the reactive-vial and then 5 aliquots of 70 μl of the Plasma solution were incubated for different time periods.

| Hydrolytic stability [1] | Plasma stability [2] | Structure (SMILES) |
| --- | --- | --- |
| quite stable | – | CC(C)c1cc(C(C)C)c(S(=O)(=O)NC(C[18F])C(=O)NCc2ccccc2)c(C(C)C)c1 (stereo not drawn) [11ab-18F, 3-[^18F]Fluoro-N-benzyl-2-(2,4,6-triisopropylphenylsulphon-amido)-propanamide] |
| – | stable | COc1ccc(S(=O)(=O)NC(C[18F])C(=O)NCc2ccccc2)cc1OC (stereo not drawn) [11ac-18F, 3-[^18F]Fluoro-N-benzyl-2-(3,4-dimethoxyphenylsulphon-amido)-propanamide] |
| – | stable | CC(C)c1cc(C(C)C)c(S(=O)(=O)NC2CN(C(=O)CCC(=O)NCc3ccccc3)CC2[18F])c(C(C)C)c1 (stereo not drawn) [35aa-18F, N-Benzyl-4-[3-[^18F]fluoro-4-(2,4,6-triisopropyl-benzene-sulfonylamino)-pyrrolidin-1-yl]-4-oxo-butyramide] |
